# In patent publication US8501752B2, “Methods for treating cancer and other pathological proliferating disorders by inhibiting mitosis using pyrrolo[2,3-d]pyrimidines” (Duquesne University of the Holy Ghost, priority 2005, dated 2013):
# Legend:
# [1] = system: T24, MCF-7, NCI/ADR, MCF-7/VP; test: Cytotoxicity, panel of human tumor cell lines of Table 3 (text summaries)
# Description: These cell lines are resistant to anticancer drugs due to overexpression of the transport proteins P-glycoprotein or MRP1.
# MOLT-4 = test: NCI IVCLSP growth inhibition (SRB), MOLT-4; type: cell-based, human; conditions: 48 h drug incubation
# Protocol: (§1) FIG. 1 presents nine compounds that were tested using the National Cancer Institute (NCI) 60 human tumor cell lines. The cells lines, which represent leukemia, melanoma, and cancers of the lung, colon, brain, ovary, breast, prostate, and kidney, are listed in Table 1.
# (§2) Compounds 1-9 were tested according to the NCI Developmental Therapeutics Program (DTP) In Vitro Cell Line Screening Project (IVCLSP). […] Methodology for testing under the IVCLSP is as follows: The human tumor cell lines of the cancer screening panel are grown in RPMI 1640 medium containing 5% fetal bovine serum and 2 mM L-glutamine. […]
# (§3) Following drug addition, the plates are incubated for an additional 48 h at 37° C., 5% CO2, 95% air, and 100% relative humidity. […] Bound stain is subsequently solubilized with 10 mM trizma base, and the absorbance is read on an automated plate reader at a wavelength of 515 nm. […] Using the seven absorbance measurements [time zero, (Tz), control growth, (C), and test growth in the presence of drug at the five concentration levels (Ti)], the percentage growth is calculated at each of the drug concentrations levels. Percentage growth inhibition is calculated as: [(Ti−Tz)/(C−Tz)]×100 for concentrations for which Ti>/=Tz [(Ti−Tz)/Tz]×100 for concentrations for which Ti<Tz.
# (§4) Three dose response parameters are calculated for each experimental agent. […]
# SW-620 = test: NCI IVCLSP growth inhibition (SRB), SW-620; type: cell-based, human; conditions: 48 h drug incubation
# Protocol: as §1, §2, §3, §4
# IGROVI = test: NCI IVCLSP growth inhibition (SRB), IGROVI; type: cell-based, human; conditions: 48 h drug incubation
# Protocol: as §1, §2, §3, §4
# HS 578T = test: NCI IVCLSP growth inhibition (SRB), HS 578T; type: cell-based, human; conditions: 48 h drug incubation
# Protocol: as §1, §2, §3, §4
# KM12 = test: NCI IVCLSP growth inhibition (SRB), KM12; type: cell-based, human; conditions: 48 h drug incubation
# Protocol: as §1, §2, §3, §4
# HT29 = test: NCI IVCLSP growth inhibition (SRB), HT29; type: cell-based, human; conditions: 48 h drug incubation
# Protocol: as §1, §2, §3, §4
# EKVX = test: NCI IVCLSP growth inhibition (SRB), EKVX; type: cell-based, human; conditions: 48 h drug incubation
# Protocol: as §1, §2, §3, §4
# M14 = test: NCI IVCLSP growth inhibition (SRB), M14; type: cell-based, human; conditions: 48 h drug incubation
# Protocol: as §1, §2, §3, §4
# TKIO = test: NCI IVCLSP growth inhibition (SRB), TKIO; type: cell-based, human; conditions: 48 h drug incubation
# Protocol: as §1, §2, §3, §4
# LOX IMVI = test: NCI IVCLSP growth inhibition (SRB), LOX IMVI; type: cell-based, human; conditions: 48 h drug incubation
# Protocol: as §1, §2, §3, §4
# MDA-MB-231/ATCC = test: NCI IVCLSP growth inhibition (SRB), MDA-MB-231/ATCC; type: cell-based, human; conditions: 48 h drug incubation
# Protocol: as §1, §2, §3, §4
# K-562 = test: NCI IVCLSP growth inhibition (SRB), K-562; type: cell-based, human; conditions: 48 h drug incubation
# Protocol: as §1, §2, §3, §4
# COLO 205 = test: NCI IVCLSP growth inhibition (SRB), COLO 205; type: cell-based, human; conditions: 48 h drug incubation
# Protocol: as §1, §2, §3, §4
# NCI-H322M = test: NCI IVCLSP growth inhibition (SRB), NCI-H322M; type: cell-based, human; conditions: 48 h drug incubation
# Protocol: as §1, §2, §3, §4
# T-47D = test: NCI IVCLSP growth inhibition (SRB), T-47D; type: cell-based, human; conditions: 48 h drug incubation
# Protocol: as §1, §2, §3, §4
# PC-3 = test: NCI IVCLSP growth inhibition (SRB), PC-3; type: cell-based, human; conditions: 48 h drug incubation
# Protocol: as §1, §2, §3, §4
smiles,measurement,setting,value
COc1cc(CCc2cn(Cc3ccccc3)c3nc(N)nc(C)c23)cc(OC)c1OC [Compound 1],"cytotoxic potency, better than Compound 4 (2-OMe)",[1],10 fold
same,effect of P-glycoprotein / MRP1 overexpression on cell sensitivity (in words),[1],neither P-glycoprotein nor MRP1 affect cell sensitivity
same,cytotoxic potency (in words),[1]; all tested cell lines,Submicromolar cytotoxic potency
same,GI50,MOLT-4,285 nM
same,GI50,SW-620,236 nM
same,GI50,IGROVI,61.1 nM
same,GI50,HS 578T,283 nM
same,GI50,KM12,194 nM
same,GI50,HT29,281 nM
same,GI50,EKVX,424 nM
same,GI50,M14,77 nM
same,GI50,TKIO,961 nM
same,GI50,LOX IMVI,250 nM
same,GI50,MDA-MB-231/ATCC,595 nM
same,GI50,K-562,84.6 nM
same,GI50,COLO 205,190 nM
same,GI50,NCI-H322M,581 nM
same,GI50,T-47D,563 nM
same,GI50,PC-3,47.9 nM
